Here are results for three compounds from EP0967196B1, “Substituted 2-hydroxybenzophenones, preparation thereof, their use as fungicide and their fungicidal compositions” (BASF AKTIENGESELLSCHAFT, priority 1998, dated 1999).

Assay [1] deals with Blumeria (Erysiphe) graminis DC. f.sp. tritici E. Marchal. Kind of assay: Wheat Powdery Mildew (WPM) curative fungicidal activity, inoculation 3 days before spray application on wheat plants. The conditions noted are these: for WPM 3 day curative % disease control / WPM 3 day curative Antisporulation effect: Comparison test (Table IV), 200 l/ha; for Emax at 0.2 ppm / Emax at 1 ppm / Emax at 5 ppm / Emax at 25 ppm / Emax at 125 ppm: Blumeria, 72 h, WPM 3 da C (3 day curative), wheat variety Kanzler, read-out: Disease control (% efficacy); for Emax at 0.2 ppm: rate 0.2 ppm; for Emax at 125 ppm: rate 125 ppm. The arrangement: key to WPM 3 day curative Antisporulation effect: +++ = complete (no spore release); ++ = moderate; + = slight; o = none. Type of assay: in vivo. The text has this: (§1) • Wheat Powdery Mildew (WPM): • HOST: Wheat (Triticum aestivum L.) variety Kanzler • PATHOGEN: Blumeria (Erysiphe) graminis DC. f.sp. tritici E. Marchal
(§2) • 1. Wheat seed (approximately 8-10/pot) is planted in 6 cm diameter plastic pots and maintained in the greenhouse. • 2. When the primary leaf (wheat) is fully expanded, formulated test compounds are sprayed with a single nozzle overhead track sprayer at a rate of 200 l/ha. Plants are then allowed to air-dry. • 3. Inoculation precedes treatment by 3 days in the case of curative evaluations and follows treatment by 4 or 5 days in case of residual evaluations. For inoculation, plants are set up on greenhouse benches with bottom watering mats and inoculated by dusting them with conidia from powdery mildew infected plants (stock cultures at an age of 10-14 days). Between inoculation and treatment for curative evaluations and between treatment and inoculation for residual evaluations, plants are maintained in the greenhouse with bottom watering. • 4. Disease on the primary leaf as percent leaf area with disease symptoms/signs is evaluated about 7 days after inoculation. In the case of wheat, the tips and bases of the leaves are excluded from the evaluation.
(§3) Percent disease control is then calculated by the following formula: % disease control = 100 -(% infection in treated plants)/(% infection in untreated plants)x 100 [formula]
(§4) • 1. Technical compounds are formulated in a solvent/surfactant system consisting of 5% acetone and 0.05% Tween 20 in deionized water. Compounds are dissolved in acetone prior to addition of the water; the Tween 20 can be added through either the acetone or the water. Dilutions are made using the solvent/surfactant system. Formulated compounds are prepared using deionized water. • 2. Two kinds of controls are included: • Plants treated with the solvent/surfactant solution and inoculated (Solvent Blank). • Untreated plants which are inoculated (Inoculated Control).
(§5) The fungicidal activity against wheat powdery mildew of the hydroxybenzophenones according to this invention has been compared with a fungicidal benzophenone known from EP 0 727 141 in the following table. Compounds applied to seedling wheat plants using a single-nozzle overhead track sprayer at an application rate of 200 l/ha.

Assay [2] shares this test system. As to the kind of experiment: Wheat Powdery Mildew (WPM) residual fungicidal activity, inoculation 4 or 5 days after spray application on wheat plants. Conditions: for WPM 4 day residual % disease control: Comparison test (Table IV), 200 l/ha; for Emax at 0.2 ppm / Emax at 1 ppm / Emax at 5 ppm / Emax at 25 ppm / Emax at 125 ppm: Blumeria, WPM 4/5 da R (4/5 day residual), wheat variety Kanzler, read-out: Disease control (% efficacy); for Emax at 0.2 ppm: rate 0.2 ppm; for Emax at 125 ppm: rate 125 ppm. In kind it is in vivo.
Text: as §1, §2, §3, §4
4/5 da R = 4/5 day residual Inoculation 4 or 5 days AFTER application
as §5

On to `CCCCOc1c(OC)c(OC)cc(C)c1C(=O)c1c(Cl)cccc1Cl` [standard, 2'-n-butyloxy-2,6-dichloro-3',4'-dimethoxy-6'-methylbenzophenone, reference compound], for which the “WPM 3 day curative % disease control” value is recorded as 0% in assay [1] (rate 1 ppm), 3% in assay [1] (rate 5 ppm) and 6% in assay [1] (rate 25 ppm). Further, the “WPM 3 day curative Antisporulation effect” value in assay [1] (rate 1 ppm) is given as 0; in assay [1] (rate 5 ppm) it was 0; in assay [1] (rate 25 ppm), “+”. The “WPM 4 day residual % disease control” value in assay [2] (rate 1 ppm) is reported as 15%; in assay [2] (rate 5 ppm) it was 47%; in assay [2] (rate 25 ppm), 92%.

Take `COc1cc(C)c(C(=O)c2c(OC(C)=O)ccc(Br)c2C)c(OC)c1OC` [Example 1, 2-acetoxy-5-bromo-6,6'-dimethyl-2',3',4'-trimethoxybenzophenone]: the Emax at 0.2 ppm in assay [1] was found to be 2%; in assay [2], 53%. Also, the Emax at 1 ppm in assay [1] (rate 1 ppm) is 17%; in assay [2] (rate 1 ppm), 84%. In addition, the Emax at 5 ppm in assay [1] (rate 5 ppm) came to 33%; in assay [2] (rate 5 ppm), 98%. Also, the Emax at 25 ppm in assay [1] (rate 25 ppm) came out at 49%; in assay [2] (rate 25 ppm), 100%. Moreover, the Emax at 125 ppm in assay [1] amounted to 55%; in assay [2], 100%.

`COc1cc(C)c(C(=O)c2c(O)ccc(Br)c2C)c(OC)c1OC` [Example 2, 5-bromo-6,6'-dimethyl-2-hydroxy-2',3',4'-trimethoxybenzophenone]: in assay [1], the Emax at 0.2 ppm came to 13% and the Emax at 125 ppm turned out to be 59%. In addition, in assay [1] (rate 1 ppm), the Emax at 1 ppm was 23%, the “WPM 3 day curative % disease control” value was determined as 10% and the “WPM 3 day curative Antisporulation effect” value was “+”. Further, in assay [1] (rate 5 ppm), the Emax at 5 ppm is 37%, the “WPM 3 day curative % disease control” value was found to be 22% and the “WPM 3 day curative Antisporulation effect” value is given as “+”. Besides, in assay [1] (rate 25 ppm), the Emax at 25 ppm is 53%, the “WPM 3 day curative % disease control” value was determined as 40% and the “WPM 3 day curative Antisporulation effect” value was “+++”. Moreover, in assay [2], the Emax at 0.2 ppm is 86% and the Emax at 125 ppm came to 100%. Also, in assay [2] (rate 1 ppm), the Emax at 1 ppm turned out to be 98% and the “WPM 4 day residual % disease control” value is reported as 52%. Also, in assay [2] (rate 5 ppm), the Emax at 5 ppm stood at 100% and the “WPM 4 day residual % disease control” value stood at 78%. In assay [2] (rate 25 ppm), the Emax at 25 ppm amounted to 100% and the “WPM 4 day residual % disease control” value is 100%.
